Earlier results, collected in EP2517696A1, “Extended release memantine tablet” (Ali Raif Ilaç Sanayi ve Ticaret Anonim Sirketi, priority 2011, dated 2012).
Counter-ions that a name gives are not always drawn.

Key:
[1] = in vivo
[2] = high dissolution and permeability

**Q.** With CC12CC3CC(C)(C1)CC(N)(C3)C2 [Memantine HCl, 3,5 dimethyl-1-adamantamine hydrochloride] as the compound, how does the absolute bioavailability [1] read?
**A.** The absolute bioavailability was 100%.

**Q.** What about the BCS class [2] of the same compound?
**A.** The BCS class was “BCS 1 class”.
